Data from US9409905B2, “Antibacterial compounds and methods for use” (PTC THERAPEUTICS, INC., priority 2011, dated 2016).
In brackets after ≈: the same amount, converted by molar mass.

Tests used:
[1] = test system: Acinetobacter baumannii (A. baumannii) BAA747; assay: Antibacterial activity, MIC (Table 4); type: cell-based; settings: A. baumannii BAA747, read-out: MIC, BAA747
Outline: (§1)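 MIC in μg/mL by microbroth dilution, scored as the lowest level that suppresses visible growth.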

[2] = test system: Klebsiella pneumoniae (K. pneumoniae) 35657; assay: Antibacterial activity, MIC (Table 4); type: cell-based; settings: K. pneumoniae 35657, read-out: MIC, 35657
Outline: as §1

[3] = test system: Pseudomonas aeruginosa (P. aeruginosa) 27853; assay: Antibacterial activity, MIC (Table 5); type: cell-based; settings: P. aeruginosa 27853, read-out: MIC, 27853
Outline: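 Compounds are serially diluted in broth and inoculated with the organism. Growth is then inspected macroscopically, and the lowest concentration showing none is taken as the MIC (μg/mL).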

[4] = test system: Neisseria meningitidis (N. meningitidis) 13090; assay: Antibacterial activity, MIC (Table 8); type: cell-based
Outline: (§2)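 Broth microdilution MIC, read as the lowest drug concentration preventing macroscopically visible growth under test conditions and reported in μg/mL.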

[5] = test system: Escherichia coli (E. coli) BAS849; assay: Antibacterial activity, microbroth dilution MIC (Table 1); type: cell-based; settings: microbroth dilution, super sensitive Gram-negative E. coli BAS849, read-out: MIC, BAS849
Outline: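 Potency is reported as minimum inhibitory concentration in μg/mL, determined by broth microdilution as the lowest level of compound that stops growth visible to the eye.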

[6] = test system: Staphylococcus aureus (S. aureus) 29213; assay: as above; type: cell-based; settings: microbroth dilution, Gram-positive S. aureus 29213, read-out: MIC, 29213
Outline: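 Broth microdilution; endpoint = no macroscopic growth; value = lowest inhibiting concn, μg/mL.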

[7] = test system: Haemophilus influenzae (H. influenzae) 49247; assay: Antibacterial activity, MIC (Table 6); type: cell-based
Outline: as §2

E. coli 25922 = assay: Antibacterial activity, microbroth dilution MIC (Table 1); type: cell-based, Escherichia coli; settings: Escherichia coli; microbroth dilution; control Gram-negative E. coli 25922 strain; read-out: MIC, 25922
Outline: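 Lowest concentration stopping macroscopically visible growth under test conditions, by broth microdilution, defines the MIC (μg/mL).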

E. coli LZ3111 = assay: Antibacterial activity, MIC, quinolone resistant strain (Table 2); type: cell-based; settings: Escherichia coli, LZ3111, read-out: MIC LZ3111
Outline: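 Strain carries mutations conferring high-level quinolone resistance; tested by microbroth dilution, MIC recorded in μg/mL as lowest concentration preventing visible growth.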

K. pneumoniae MXX1232 = assay: Antibacterial activity, MIC, resistant strain (Table 4); type: cell-based; settings: Klebsiella pneumoniae, MXX1232; resistant K. pneumoniae MMX1232, multi-drug resistant clinical isolate; read-out: MIC, MMX1232
Outline: as §1

A. baumannii MXX2240 = assay: as above; type: cell-based; settings: Acinetobacter baumannii, MXX2240; resistant A. baumannii MMX2240, multi-drug resistant clinical isolate; read-out: MIC, MMX2240
Outline: as §1

E. coli ELZ4000 = assay: Antibacterial activity, MIC, multi-drug resistant clinical isolate (Table 3); type: cell-based; settings: Escherichia coli, ELZ4000, read-out: MIC ELZ4000
Outline: (§3)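 Microbroth dilution. Endpoint: absence of macroscopically visible growth. Value = MIC, μg/mL.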

E. coli ELZ4251 = assay: as above; type: cell-based; settings: Escherichia coli
Outline: as §3

[8] = test system: Moraxella catarrhalis (M. catarrhalis) 25238; assay: Antibacterial activity, MIC (Table 7); type: cell-based
Outline: as §2

SMILES | MIC [1] [µg/mL] | MIC [2] [µg/mL] | MIC [3] [µg/mL] | MIC [4] [µg/mL] | MIC [5] [µg/mL] | MIC [6] [µg/mL] | MIC [7] [µg/mL] | MIC (E. coli 25922) [µg/mL] | MIC (E. coli LZ3111) [µg/mL] | MIC (K. pneumoniae MXX1232) [µg/mL] | MIC (A. baumannii MXX2240) [µg/mL] | MIC (E. coli ELZ4000) [µg/mL] | MIC (E. coli ELZ4251) [µg/mL] | MIC [8] [µg/mL]
CCc1c(-c2ccc3c(c2)cc(CNCC2CCN(C)CC2)n3C)[nH]c(=O)c(C(=O)O)c1O.Cl.Cl [Cpd 234, 5-ethyl-4-hydroxy-6-(1-methyl-2-((((1-methylpiperidin-4-yl)methyl)amino)methyl)-1H-indol-5-yl)-2-oxo-1,2-dihydropyridine-3-carboxylic acid dihydrochloride] | 12.5 to 150 | 1 to 3.5 | 12.5 to 150 | 1 to 3.5 | < 1 | 12.5 to 150 | 1 to 3.5 | 1 to 3.5 | 1 to 3.5 | 12.5 to 150 | 12.5 to 150 | 12.5 to 150 | 12.5 to 150 | 3.5 to 12.5
CCc1c(-c2ccc3c(c2)cc(CNCC2CCC2)n3C)[nH]c(=O)c(C(=O)O)c1O.Cl [Cpd 235, 6-(2-((cyclobutylmethylamino)methyl)-1-methyl-1H-indol-5-yl)-5-ethyl-4-hydroxy-2-oxo-1,2-dihydropyridine-3-carboxylic acid hydrochloride] | < 1 | 1 to 3.5 | 12.5 to 150 | < 1 | < 1 | 3.5 to 12.5 | < 1 | < 1 | 3.5 to 12.5 | 12.5 to 150 | 3.5 to 12.5 | 12.5 to 150 | 3.5 to 12.5 | < 1
CCc1c(-c2ccc3c(c2)cc(CNCC2CCCC2)n3C)[nH]c(=O)c(C(=O)O)c1O.Cl [Cpd 236, 6-(2-((cyclopentylmethylamino)methyl)-1-methyl-1H-indol-5-yl)-5-ethyl-4-hydroxy-2-oxo-1,2-dihydropyridine-3-carboxylic acid hydrochloride] | 1 to 3.5 | 1 to 3.5 | 12.5 to 150 | < 1 | < 1 | 3.5 to 12.5 | 1 to 3.5 | < 1 | 3.5 to 12.5 | 12.5 to 150 | 1 to 3.5 | 12.5 to 150 | 12.5 to 150 | < 1
CCc1c(-c2ccc3c(c2)cc(CN2CCCN(C)CC2)n3C)[nH]c(=O)c(C(=O)O)c1O.Cl.Cl [Cpd 238, 5-ethyl-4-hydroxy-6-(1-methyl-2-((4-methyl-1,4-diazepan-1-yl)methyl)-1H-indol-5-yl)-2-oxo-1,2-dihydropyridine-3-carboxylic acid dihydrochloride] | 3.5 to 12.5 | 1 to 3.5 | 12.5 to 150 | < 1 | < 1 | 3.5 to 12.5 | < 1 | 1 to 3.5 | 1 to 3.5 | 12.5 to 150 | 12.5 to 150 | 12.5 to 150 | 12.5 to 150 | 1 to 3.5
CCc1c(-c2ccc3c(c2)cc(CC2CC2C)n3C)[nH]c(=O)c(C(=O)O)c1O.Cl (stereo not shown) [Cpd 240, 5-ethyl-4-hydroxy-6-(1-methyl-2-((2-methylcyclopropyl)methyl)-1H-indol-5-yl)-2-oxo-1,2-dihydropyridine-3-carboxylic acid hydrochloride] | < 1 | < 1 | 3.5 to 12.5 | < 1 | < 1 | 3.5 to 12.5 | < 1 | < 1 | 3.5 to 12.5 | 12.5 to 150 | 1 to 3.5 | 12.5 to 150 | 3.5 to 12.5 | < 1
CCc1c(-c2ccc3c(c2)cc(CNC2(C)CCC2)n3C)[nH]c(=O)c(C(=O)O)c1O.Cl [Cpd 245, 5-ethyl-4-hydroxy-6-(1-methyl-2-((1-methylcyclobutylamino)methyl)-1H-indol-5-yl)-2-oxo-1,2-dihydropyridine-3-carboxylic acid hydrochloride] | < 1 | < 1 | 3.5 to 12.5 | < 1 | < 1 | 3.5 to 12.5 | < 1 | < 1 | 1 to 3.5 | 12.5 to 150 | 1 to 3.5 | 3.5 to 12.5 | 1 to 3.5 | < 1
CCc1c(-c2ccc3c(c2)cc(CN2CCC(C)CC2)n3C)[nH]c(=O)c(C(=O)O)c1O [Cpd 247, 5-ethyl-4-hydroxy-6-(1-methyl-2-((4-methylpiperidin-1-yl)methyl)-1H-indol-5-yl)-2-oxo-1,2-dihydropyridine-3-carboxylic acid] | 1 to 3.5 (≈ 2.36 to 8.26 µM) | 1 to 3.5 (≈ 2.36 to 8.26 µM) | 12.5 to 150 (≈ 29.5 to 354 µM) | < 1 | < 1 | 3.5 to 12.5 (≈ 8.26 to 29.5 µM) | 1 to 3.5 (≈ 2.36 to 8.26 µM) | < 1 | 3.5 to 12.5 (≈ 8.26 to 29.5 µM) | 12.5 to 150 (≈ 29.5 to 354 µM) | 1 to 3.5 (≈ 2.36 to 8.26 µM) | 12.5 to 150 (≈ 29.5 to 354 µM) | 12.5 to 150 (≈ 29.5 to 354 µM) | < 1
CCc1c(-c2ccc3c(c2)cc(CN2CCC(N(C)C)CC2)n3C)[nH]c(=O)c(C(=O)O)c1O [Cpd 248, 6-(2-((4-(dimethylamino)piperidin-1-yl)methyl)-1-methyl-1H-indol-5-yl)-5-ethyl-4-hydroxy-2-oxo-1,2-dihydropyridine-3-carboxylic acid] | 1 to 3.5 (≈ 2.21 to 7.73 µM) | 1 to 3.5 (≈ 2.21 to 7.73 µM) | 12.5 to 150 (≈ 27.6 to 331 µM) | < 1 | < 1 | 3.5 to 12.5 (≈ 7.73 to 27.6 µM) | < 1 | < 1 | 3.5 to 12.5 (≈ 7.73 to 27.6 µM) | 12.5 to 150 (≈ 27.6 to 331 µM) | 12.5 to 150 (≈ 27.6 to 331 µM) | 12.5 to 150 (≈ 27.6 to 331 µM) | 12.5 to 150 (≈ 27.6 to 331 µM) | 1 to 3.5 (≈ 2.21 to 7.73 µM)
CCc1c(-c2ccc3c(c2)cc(CN2CCCC(N(C)C)C2)n3C)[nH]c(=O)c(C(=O)O)c1O (stereo not shown) [Cpd 250, 6-(2-((3-(dimethylamino)piperidin-1-yl)methyl)-1-methyl-1H-indol-5-yl)-5-ethyl-4-hydroxy-2-oxo-1,2-dihydropyridine-3-carboxylic acid] | 3.5 to 12.5 (≈ 7.73 to 27.6 µM) | 3.5 to 12.5 (≈ 7.73 to 27.6 µM) | 12.5 to 150 (≈ 27.6 to 331 µM) | < 1 | < 1 | 3.5 to 12.5 (≈ 7.73 to 27.6 µM) | 3.5 to 12.5 (≈ 7.73 to 27.6 µM) | 1 to 3.5 (≈ 2.21 to 7.73 µM) | 3.5 to 12.5 (≈ 7.73 to 27.6 µM) | 12.5 to 150 (≈ 27.6 to 331 µM) | 12.5 to 150 (≈ 27.6 to 331 µM) | 12.5 to 150 (≈ 27.6 to 331 µM) | 12.5 to 150 (≈ 27.6 to 331 µM) | 1 to 3.5 (≈ 2.21 to 7.73 µM)
CCc1c(-c2ccc3c(c2)cc(CN2CCC(N4CCCCC4)CC2)n3C)[nH]c(=O)c(C(=O)O)c1O [Cpd 251, 6-(2-(1,4′-bipiperidin-1′-ylmethyl)-1-methyl-1H-indol-5-yl)-5-ethyl-4-hydroxy-2-oxo-1,2-dihydropyridine-3-carboxylic acid] | 3.5 to 12.5 (≈ 7.1 to 25.4 µM) | 1 to 3.5 (≈ 2.03 to 7.1 µM) | 12.5 to 150 (≈ 25.4 to 304 µM) | < 1 | < 1 | 3.5 to 12.5 (≈ 7.1 to 25.4 µM) | 1 to 3.5 (≈ 2.03 to 7.1 µM) | 1 to 3.5 (≈ 2.03 to 7.1 µM) | 3.5 to 12.5 (≈ 7.1 to 25.4 µM) | 12.5 to 150 (≈ 25.4 to 304 µM) | 12.5 to 150 (≈ 25.4 to 304 µM) | 12.5 to 150 (≈ 25.4 to 304 µM) | 12.5 to 150 (≈ 25.4 to 304 µM) | < 1
CCc1c(-c2ccc3c(c2)cc(CN2CCC(N)CC2)n3C)[nH]c(=O)c(C(=O)O)c1O [Cpd 252, 6-(2-((4-aminopiperidin-1-yl)methyl)-1-methyl-1H-indol-5-yl)-5-ethyl-4-hydroxy-2-oxo-1,2-dihydropyridine-3-carboxylic acid] | 12.5 to 150 (≈ 29.4 to 353 µM) | 1 to 3.5 (≈ 2.36 to 8.24 µM) | 3.5 to 12.5 (≈ 8.24 to 29.4 µM) | 1 to 3.5 (≈ 2.36 to 8.24 µM) | < 1 | 12.5 to 150 (≈ 29.4 to 353 µM) | 1 to 3.5 (≈ 2.36 to 8.24 µM) | 1 to 3.5 (≈ 2.36 to 8.24 µM) | 1 to 3.5 (≈ 2.36 to 8.24 µM) | 12.5 to 150 (≈ 29.4 to 353 µM) | 12.5 to 150 (≈ 29.4 to 353 µM) | 12.5 to 150 (≈ 29.4 to 353 µM) | 12.5 to 150 (≈ 29.4 to 353 µM) | 3.5 to 12.5 (≈ 8.24 to 29.4 µM)
